Structures can show the parent of a compound that is named as a salt. A value given as a limit tells only on which side of the number the result lay.

Chain of human GlyT1c transporter (P48067 whole entry): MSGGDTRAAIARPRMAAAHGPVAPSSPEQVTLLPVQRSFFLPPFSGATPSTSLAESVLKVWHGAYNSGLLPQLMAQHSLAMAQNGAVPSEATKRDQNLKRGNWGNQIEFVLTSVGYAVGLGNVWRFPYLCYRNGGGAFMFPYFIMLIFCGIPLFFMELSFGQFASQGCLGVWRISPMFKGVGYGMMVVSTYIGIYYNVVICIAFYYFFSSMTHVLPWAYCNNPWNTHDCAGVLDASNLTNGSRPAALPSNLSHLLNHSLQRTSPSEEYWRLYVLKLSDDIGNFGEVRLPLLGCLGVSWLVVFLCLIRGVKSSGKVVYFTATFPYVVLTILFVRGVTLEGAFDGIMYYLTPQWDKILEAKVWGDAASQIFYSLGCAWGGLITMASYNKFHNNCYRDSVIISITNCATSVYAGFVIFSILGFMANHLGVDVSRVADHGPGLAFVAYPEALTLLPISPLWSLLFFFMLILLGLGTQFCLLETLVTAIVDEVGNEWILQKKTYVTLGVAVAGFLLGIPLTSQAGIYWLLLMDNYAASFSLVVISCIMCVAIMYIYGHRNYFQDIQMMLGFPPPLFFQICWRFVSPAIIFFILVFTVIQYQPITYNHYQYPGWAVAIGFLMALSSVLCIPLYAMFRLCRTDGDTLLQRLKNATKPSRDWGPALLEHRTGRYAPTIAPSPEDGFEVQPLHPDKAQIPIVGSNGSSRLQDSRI

The assay has as its target human GlyT1c transporter (Homo sapiens (Human), UniProt P48067). As to the kind of experiment: Radioligand binding assay using recombinant CHO cell membranes expressing human GlyT1. To be noted: human GlyT1c-expressing CHO cell membranes; read-out: radioligand binding Kiapp. From the text:
2. Radioligand binding assays using recombinant CHO cell membranes expressing human GlyT1: […]
Regarding `CC(=O)NC1CCc2ccc(CCCNS(=O)(=O)CC3CC3)cc2C1Cc1cccc(F)c1` (stereo not shown) [Example 218, N-[7-(3-{[(Cyclopropylmethyl)sulfonyl]amino}propyl)-1-(3-fluorobenzyl)-1,2,3,4-tetrahydronaphthalen-2-yl]acetamide], the Ki was at most 10 µM.
With `CCCS(=O)(=O)NCCCc1ccc2c(c1)C(Cc1cccc(F)c1)C(NCC)CC2` (stereo not shown) [Example 219, Propane-1-sulfonic acid {3-[7-ethylamino-8-(3-fluoro-benzyl)-5,6,7,8-tetrahydronaphthalen-2-yl]-propyl}-amide hydrochloride] the figure was at most 0.1 µM; with `CCCS(=O)(=O)NCCCc1ccc2c(c1)C(Cc1ccc(F)cc1)C(NCC)CC2` (stereo not shown) [Example 220, N-{3-[7-(Ethylamino)-8-(4-fluorobenzyl)-5,6,7,8-tetrahydronaphthalen-2-yl]propyl}propane-1-sulfonamide hydrochloride], at most 1 µM.
With `CCNC1CCc2ccc(CCCNS(=O)(=O)CC3CC3)cc2C1Cc1cccc(F)c1` (stereo not shown) [Example 221, C-Cyclopropyl-N-{3-[7-ethylamino-8-(3-fluoro-benzyl)-5,6,7,8-tetrahydro-naphthalen-2-yl]-propyl}-methanesulfonamide hydrochloride] the figure was at most 0.1 µM; with `CCCS(=O)(=O)NCCCc1ccc2c(c1)C(Cc1ccccc1Cl)C(NCC)CC2` (stereo not shown) [Example 222, Propane-1-sulfonic acid {3-[8-(2-chloro-benzyl)-7-ethylamino-5,6,7,8-tetrahydronaphthalen-2-yl]-propyl}-amide hydrochloride], at most 1 µM; with `CCCS(=O)(=O)NCCCc1ccc2c(c1)C(Cc1ccccc1)C(NCC)CC2` (stereo not shown) [Example 223, N-{3-[8-Benzyl-7-(ethylamino)-5,6,7,8-tetrahydronaphthalen-2-yl]propyl}propane-1-sulfonamide hydrochloride], at most 0.1 µM.
As for `CCNC1CCc2ccc(CCCNS(=O)(=O)CC3CC3)cc2C1Cc1ccccc1` (stereo not shown) [Example 224, N-{3-[8-Benzyl-7-(ethylamino)-5,6,7,8-tetrahydronaphthalen-2-yl]propyl}-1-cyclopropylmethanesulfonamide hydrochloride], the figure is at most 0.1 µM; as for `CCCS(=O)(=O)NCCCc1ccc2c(c1)C(Cc1ccc(F)c(F)c1)C(NCC)CC2` (stereo not shown) [Example 225, N-{3-[8-(3,4-Difluorobenzyl)-7-(ethylamino)-5,6,7,8-tetrahydronaphthalen-2-yl]propyl}propane-1-sulfonamide trifluoroacetate], at most 0.1 µM.
For the compound `CCNC1CCc2ccc(CCCNS(=O)(=O)CC3CC3)cc2C1Cc1ccc(F)c(F)c1` (stereo not shown) [Example 226, 1-Cyclopropyl-N-{3-[8-(3,4-difluorobenzyl)-7-(ethylamino)-5,6,7,8-tetrahydronaphthalen-2-yl]propyl}methanesulfonamide trifluoroacetate], the Ki is at most 0.1 µM.
With `CCCS(=O)(=O)N(C)CCCc1ccc2c(c1)C(Cc1cccc(F)c1)C(N)CC2` (stereo not shown) [Example 227, N-{3-[7-Amino-8-(3-fluorobenzyl)-5,6,7,8-tetrahydronaphthalen-2-yl]propyl}-N-methylpropane-1-sulfonamide hydrochloride] the figure was at most 0.1 µM; with `CN(CCCc1ccc2c(c1)C(Cc1ccccc1Cl)C(N)CC2)S(=O)(=O)CC1CC1` (stereo not shown) [Example 228, N-{3-[7-Amino-8-(2-chloro-benzyl)-5,6,7,8-tetrahydro-naphthalen-2-yl]-propyl}-C-cyclopropyl-N-methyl-methanesulfonamide hydrochloride], at most 0.1 µM.
As for `CN(CCCc1ccc2c(c1)C(Cc1cccc(F)c1)C(N)CC2)S(=O)(=O)CC1CC1` (stereo not shown) [Example 230, N-{3-[7-Amino-8-(3-fluorobenzyl)-5,6,7,8-tetrahydronaphthalen-2-yl]propyl}-1-cyclopropylN-methylmethanesulfonamide hydrochloride], the figure is at most 0.01 µM.
With `CCCS(=O)(=O)N(C)CCCc1ccc2c(c1)C(Cc1ccc(F)cc1)C(N)CC2` (stereo not shown) [Example 232, N-{3-[7-Amino-8-(4-fluorobenzyl)-5,6,7,8-tetrahydronaphthalen-2-yl]propyl}-N-methylpropane-1-sulfonamide hydrochloride] the figure was at most 0.1 µM; with `CN(CCCc1ccc2c(c1)C(Cc1ccc(Cl)cc1)C(N)CC2)S(=O)(=O)CC1CC1` (stereo not shown) [Example 233, N-{3-[7-Amino-8-(4-chlorobenzyl)-5,6,7,8-tetrahydronaphthalen-2-yl]propyl}-1-cyclopropylN-methylmethanesulfonamide hydrochloride], at most 0.1 µM.
As to `CCCS(=O)(=O)N(C)CCCc1ccc2c(c1)C(Cc1ccc(Cl)cc1)C(N)CC2` (stereo not shown) [Example 234, N-{3-[7-Amino-8-(4-chlorobenzyl)-5,6,7,8-tetrahydronaphthalen-2-yl]propyl}-N-methylpropane-1-sulfonamide hydrochloride], the Ki was at most 0.1 µM.
Take `NC1CCc2ccc(OCCNS(=O)(=O)CC3CC3)cc2C1Cc1cccc(F)c1` (stereo not shown) [Example 235, N-(2-{[7-Amino-8-(3-fluorobenzyl)-5,6,7,8-tetrahydronaphthalen-2-yl]oxy}ethyl)-1-cyclopropylmethanesulfonamide hydrochloride]: the Ki was at most 0.01 µM.
As for `CCOC(=O)NC1CCc2ccc(OCCNS(=O)(=O)c3ccn(C)c3)cc2C1Cc1cc(F)cc(F)c1` (stereo not shown) [Example 236, Ethyl[1-(3,5-difluorobenzyl)-7-(2-{[(1-methyl-1H-pyrrol-3-yl)sulfonyl]amino}ethoxy)-1,2,3,4-tetrahydronaphthalen-2-yl]carbamate], the figure is at most 1 µM; as for `CNC1CCc2ccc(OCCNS(=O)(=O)CC3CC3)cc2C1Cc1cc(F)cc(F)c1` (stereo not shown) [Example 243, 1-Cyclopropyl-N-(2-{[8-(3,5-difluorobenzyl)-7-(methylamino)-5,6,7,8-tetrahydronaphthalen-2-yl]oxy}ethylmethanesulfonamide hydrochloride], at most 0.01 µM.
With `CNC1CCc2ccc(OCCNS(=O)(=O)c3ccn(C)c3)cc2C1Cc1cc(F)cc(F)c1` (stereo not shown) [Example 246, N-(2-{[8-(3,5-Difluorobenzyl)-7-(methylamino)-5,6,7,8-tetrahydronaphthalen-2-yl]oxy}ethyl)-1-methyl-1H-pyrrole-3-sulfonamide hydrochloride] the figure was at most 0.01 µM.
Consider `CNC1CCc2ccc(OCCNS(=O)(=O)CC3CC3)cc2C1Cc1cccc(F)c1` (stereo not shown) [Example 247, 1-Cyclopropyl-N-(2-{[8-(3-fluorobenzyl)-7-(methylamino)-5,6,7,8-tetrahydronaphthalen-2-yl]oxy}ethyl)methanesulfonamide hydrochloride], for which the Ki was at most 0.01 µM.
With `Cn1cnc(S(=O)(=O)NCc2ccc3c(c2)C(Cc2ccccc2)C(N2CCC2)CC3)c1` (stereo not shown) [Example 248, N-{[7-(Azetidin-1-yl)-8-benzyl-5,6,7,8-tetrahydronaphthalen-2-yl]methyl}-1-methyl-1H-imidazole-4-sulfonamide] the figure was at most 0.01 µM; with `Cn1cc(S(=O)(=O)NCc2ccc3c(c2)C(Cc2ccccc2)C(N2CCC2)CC3)cn1` (stereo not shown) [Example 250, N-{[7-(Azetidin-1-yl)-8-benzyl-5,6,7,8-tetrahydronaphthalen-2-yl]methyl}-1-methyl-1H-pyrazole-4-sulfonamide], at most 0.01 µM.
As for `Cn1ccc(S(=O)(=O)NCc2ccc3c(c2)C(Cc2ccccc2)C(N2CCC2)CC3)c1` (stereo not shown) [Example 251, N-{[7-(Azetidin-1-yl)-8-benzyl-5,6,7,8-tetrahydronaphthalen-2-yl]methyl}-1-methyl-1H-pyrrole-3-sulfonamide trifluoroacetate], the figure is at most 0.1 µM; as for `Cn1cnc(S(=O)(=O)NCc2ccc3c(c2)C(Cc2cccc(F)c2)C(N2CCC2)CC3)c1` (stereo not shown) [Example 256, N-{[7-(Azetidin-1-yl)-8-(3-fluorobenzyl)-5,6,7,8-tetrahydronaphthalen-2-yl]methyl}-1-methyl-1H-imidazole-4-sulfonamide hydrochloride], at most 0.1 µM.
With `Cn1cnc(S(=O)(=O)NCc2ccc3c(c2)C(Cc2ccccc2)C(N2CCOCC2)CC3)c1` (stereo not shown) [Example 257, N-{[8-Benzyl-7-(morpholin-4-yl)-5,6,7,8-tetrahydronaphthalen-2-yl]methyl}-1-methyl-1H-imidazole-4-sulfonamide], the Ki was at most 0.1 µM.
With `Cn1cc(S(=O)(=O)NCc2ccc3c(c2)C(Cc2ccccc2)C(N2CCOCC2)CC3)cn1` (stereo not shown) [Example 258, N-{[8-Benzyl-7-(morpholin-4-yl)-5,6,7,8-tetrahydronaphthalen-2-yl]methyl}-1-methyl-1H-pyrazole-4-sulfonamide] the figure was at most 0.1 µM; with `O=S(=O)(CC1CC1)NCc1ccc2c(c1)C(Cc1ccccc1)C(N1CCOCC1)CC2` (stereo not shown) [Example 259, N-{[8-Benzyl-7-(morpholin-4-yl)-5,6,7,8-tetrahydronaphthalen-2-yl]methyl}-1-cyclopropylmethanesulfonamide], at most 1 µM; with `O=S(=O)(NCc1ccc2c(c1)C(Cc1ccccc1)C(N1CCOCC1)CC2)C1CCC1` (stereo not shown) [Example 261, N-{[8-Benzyl-7-(morpholin-4-yl)-5,6,7,8-tetrahydronaphthalen-2-yl]methyl}cyclobutanesulfonamide], at most 1 µM.
`Cn1cnc(S(=O)(=O)NCc2ccc3c(c2)C(Cc2ccccc2)C(N2CCCC2)CC3)c1` (stereo not shown) [Example 262, N-{[8-Benzyl-7-(pyrrolidin-1-yl)-5,6,7,8-tetrahydronaphthalen-2-yl]methyl}-1-methyl-1H-imidazole-4-sulfonamide]: the Ki was at most 0.1 µM.
With `Cn1cnc(S(=O)(=O)NCc2ccc3c(c2)C(Cc2ccccc2)C(N2CCCC2=O)CC3)c1` (stereo not shown) [Example 263, N-{[8-Benzyl-7-(2-oxopyrrolidin-1-yl)-5,6,7,8-tetrahydronaphthalen-2-yl]methyl}-1-methyl-1H-imidazole-4-sulfonamide] the figure was at most 1 µM; with `CCCS(=O)(=O)NCCCc1ccc2c(c1)C(Cc1cccc(Cl)c1)C(N1CCCC1)CC2` (stereo not shown) [Example 264, N-{3-[8-(3-Chlorobenzyl)-7-(pyrrolidin-1-yl)-5,6,7,8-tetrahydronaphthalen-2-yl]propyl}propane-1-sulfonamide hydrochloride], at most 1 µM.

The values are drawn from patent US9067871B2, “Aminotetraline derivatives, pharmaceutical compositions containing them, and their use in therapy” (ABBVIE DEUTSCHLAND GMBH & CO KG, priority 2009, dated 2015).
